System: Salmonella typhimurium
Assay: Example 1: effect of pH buffering of acetic and propionic acid on antimicrobial activity in water
Assay type: cell-based
Settings: for MIC at 4 Hr / MIC at 24 HR: Minimum Inhibitory Concentrations, by linear regression over 0.025-0.1% acid solutions
Description: Propionic and acetic acids were buffered with ammonium hydroxide to pHs ranging from 1 to 7. Acid contents of the buffered solutions were determined by a weight to weight ratio calculation to obtain the same acid content in the test solutions. […] The pHs of the deionized water solutions were recorded and any problems with solubility noted.
100 ul of a nutrient broth culture of Salmonella typhimurium was added to each dilution tube. After addition, tubes were vortexed and allowed to stand. At 4 and 24 hours after addition of the inoculum, 100 ul of the solution was plated on Standard Plate agar (triplicate plates). Plates were incubated at 37° C. for 24 hours prior to enumeration. The minimum effective dose of each acid was determined by linear regression.

[1] = Product Conc. 0.025 (% acid solution in water)
[2] = Product Conc. 0.05 (% acid solution in water)
[3] = Product Conc. 0.075 (% acid solution in water)
[4] = Product Conc. 0.1 (% acid solution in water)

| SMILES | Salmonella at time Interval 4 hr % reduction [1] | Salmonella at time Interval 4 hr cfu/g [1] | Salmonella at time Interval 24 hr % reduction [1] | Salmonella at time Interval 24 hr cfu/g [1] | Salmonella at time Interval 4 hr % reduction [2] | Salmonella at time Interval 4 hr cfu/g [2] | Salmonella at time Interval 24 hr % reduction [2] | Salmonella at time Interval 24 hr cfu/g [2] | Salmonella at time Interval 4 hr % reduction [3] | Salmonella at time Interval 4 hr cfu/g [3] | Salmonella at time Interval 24 hr % reduction [3] | Salmonella at time Interval 24 hr cfu/g [3] | Salmonella at time Interval 4 hr % reduction [4] | Salmonella at time Interval 4 hr cfu/g [4] | Salmonella at time Interval 24 hr % reduction [4] | Salmonella at time Interval 24 hr cfu/g [4] | also measured |
| --- | --- | --- | --- | --- | --- | --- | --- | --- | --- | --- | --- | --- | --- | --- | --- | --- | --- |
| CCC(=O)O [Propionic pH 6, Propionic acid] | 0% | >1505 cfu/g | 0% | 1450 cfu/g | 7% | 1400 cfu/g | 10% | 1067 cfu/g | 0% | >1505 cfu/g | 0% | 1233 cfu/g | 0% | 1700 cfu/g | 0% | 1333 cfu/g |  |
| CC(=O)O [Acetic pH 2, Acetic acid] | 39% | 920 cfu/g | 86% | 170 cfu/g | 46% | 817 cfu/g | 96% | 50 cfu/g | 55% | 673 cfu/g | 98% | 20 cfu/g | 55% | 670 cfu/g | 99% | 17 cfu/g | MIC at 4 Hr (pH 2): 0.142; MIC at 24 HR (pH 2): 0.067 |
| CC(=O)O [Acetic pH 6, Acetic acid] | 0% | 1500 cfu/g | 1% | 1167 cfu/g | 0% | 1767 cfu/g | 0% | 1400 cfu/g | 0% | 1667 cfu/g | 0% | 1400 cfu/g | 0% | 1633 cfu/g | 0% | 1433 cfu/g |  |
| CCC(=O)O [Propionic pH 5, Propionic acid] | 0% | >1505 cfu/g | 33% | 793 cfu/g | 7% | 1400 cfu/g | 20% | 943 cfu/g | 22% | 1167 cfu/g | 47% | 630 cfu/g | 46% | 817 cfu/g | 53% | 557 cfu/g | MIC at 4 Hr (pH 5): 0.170; MIC at 24 HR (pH 5): 0.165 |
| CCC(=O)O [Propionic pH 2, Propionic acid] | 29% | 1067 cfu/g | 94% | 70 cfu/g | 51% | 733 cfu/g | 99% | 10 cfu/g | 68% | 477 cfu/g | 99% | 13 cfu/g | 75% | 380 cfu/g | 99% | 7 cfu/g | MIC at 4 Hr (pH 2): 0.120; MIC at 24 HR (pH 2): 0.064 |
| CCC(=O)O [Propionic pH 4, Propionic acid] | 9% | 1367 cfu/g | 48% | 615 cfu/g | 20% | 1200 cfu/g | 75% | 293 cfu/g | 37% | 943 cfu/g | 84% | 187 cfu/g | 22% |  | 86% | 163 cfu/g | MIC at 4 Hr (pH 4): 0.237; MIC at 24 HR (pH 4): 0.091 |
| CC(=O)O [Acetic pH 7, Acetic acid] | 0% | 1567 cfu/g | 0% |  | 0% | 1600 cfu/g | 0% | 1433 cfu/g | 2% | 1467 cfu/g | 0% | 1433 cfu/g | 0% | 1567 cfu/g | 0% |  |  |
| CCC(=O)O [Propionic pH 1, Propionic acid] | 20% | 1200 cfu/g | 89% | 133 cfu/g | 39% | 923 cfu/g | 97% | 37 cfu/g | 65% | 530 cfu/g | 98% | 23 cfu/g | 70% | 450 cfu/g | 99% | 10 cfu/g | MIC at 4 Hr (pH 1): 0.131; MIC at 24 HR (pH 1): 0.066 |
| CCC(=O)O [Propionic pH 7, Propionic acid] | 0% | >1505 cfu/g | 0% | 1667 cfu/g | 0% | 1700 cfu/g | 0% | 1367 cfu/g | 0% | >1505 cfu/g | 0% | 1700 cfu/g | 0% | 1600 cfu/g | 0% | 1367 cfu/g |  |
| CC(=O)O [Acetic pH 1, Acetic acid] | 41% | 883 cfu/g | 91% | 107 cfu/g | 50% | 750 cfu/g | 99% | 7 cfu/g | 59% | 617 cfu/g | 99% | 17 cfu/g | 65% | 520 cfu/g | 99% | 7 cfu/g | MIC at 24 HR (pH 1): 0.065 |
| CC(=O)O [Acetic pH 5, Acetic acid] | 16% | 1267 cfu/g | 16% | 993 cfu/g | 0% | 1533 cfu/g | 26% | 873 cfu/g | 9% | 1367 cfu/g | 32% | 805 cfu/g | 14% | 1300 cfu/g | 49% | 597 cfu/g | MIC at 4 Hr (pH 5): 0.238; MIC at 24 HR (pH 5): 0.210 |

Source: US10785975B2, “Water and feed antimicrobial preservative” (priority 2009, dated 2020)
